Results: the supplement of paper PMC10307832

Legend:
Test in all cases: relative viability (nuclei count vs DMSO), 5 days (fraction); higher = more cells survive
Masitinib + Linsitinib = compound: Cc1ccc(NC(=O)c2ccc(CN3CCN(C)CC3)cc2)cc1Nc1nc(-c2cccnc2)cs1 [Masitinib] + C[C@]1(O)C[C@@H](c2nc(-c3ccc4ccc(-c5ccccc5)nc4c3)c3c(N)nccn32)C1 [Linsitinib] (partner 1 µM)
How it was run: (§1)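 Lung cancer cell lines were pin-tool dosed in 1536-well plates on the day after seeding, with either a lone drug or a fixed anchor-drug dose plus five library-drug doses (not always all listed) in √10 steps. Nuclei were counted on 4× images after 5 days. Relative viability is the ratio of treated-well to vehicle-well nuclei counts, with each value a median of duplicate plates.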

[1] = compound: CC1=CC(=CC=C1)NC2=NC(=CS2)C3=CC=NC=C3 + CC(=O)c1c(C)c2cnc(Nc3ccc(N4CCNCC4)cn3)nc2n(C2CCCC2)c1=O [Palbociclib] (partner 0.5 µM)
How it was run: as §1

Masitinib + Crizotinib = compound: Cc1ccc(NC(=O)c2ccc(CN3CCN(C)CC3)cc2)cc1Nc1nc(-c2cccnc2)cs1 [Masitinib] + C[C@@H](Oc1cc(-c2cnn(C3CCNCC3)c2)cnc1N)c1c(Cl)ccc(F)c1Cl [Crizotinib] (partner 1 µM)
How it was run: as §1

[2] = compound: CC1=CC(=CC=C1)NC2=NC(=CS2)C3=CC=NC=C3 + CC1(C)CCC(c2ccc(Cl)cc2)=C(CN2CCN(c3ccc(C(=O)NS(=O)(=O)c4ccc(N[C@H](CCN5CCOCC5)CSc5ccccc5)c(S(=O)(=O)C(F)(F)F)c4)cc3)CC2)C1 [Navitoclax] (partner 0.5 µM)
How it was run: as §1

Cell Line	relative viability (Masitinib + Linsitinib; first compound 0.01 µM)	relative viability (Masitinib + Linsitinib; first compound 0.03162 µM)	relative viability (Masitinib + Linsitinib; first compound 0.1 µM)	relative viability (Masitinib + Linsitinib; first compound 0.3162 µM)	relative viability (Masitinib + Linsitinib; first compound 1 µM)	relative viability ([1]; first compound 0.08 µM)	relative viability ([1]; first compound 0.253 µM)	relative viability ([1]; first compound 0.8 µM)	relative viability ([1]; first compound 2.53 µM)	relative viability ([1]; first compound 8 µM)	relative viability (Masitinib + Crizotinib; first compound 0.01 µM)	relative viability (Masitinib + Crizotinib; first compound 0.03162 µM)	relative viability (Masitinib + Crizotinib; first compound 0.1 µM)	relative viability (Masitinib + Crizotinib; first compound 0.3162 µM)	relative viability (Masitinib + Crizotinib; first compound 1 µM)	relative viability ([2]; first compound 0.08 µM)	relative viability ([2]; first compound 0.253 µM)	relative viability ([2]; first compound 0.8 µM)	relative viability ([2]; first compound 2.53 µM)	relative viability ([2]; first compound 8 µM)
NCI-H3122	1.01	1.01	1.06	0.828	1.1	0.185	0.193	0.384	0.253	0.193	0.26	0.252	0.306	0.217	0.253	1.02	1.04	1.07	1.08	1.04
PC-3 [JPC-3]	0.969	1	0.951	0.961	0.964	0.542	–	0.503	0.477	0.481	1.02	0.974	0.975	0.968	1.01	0.791	0.671	0.719	0.705	0.681
PC-14	0.918	0.904	1	0.976	0.999	0.502	0.484	0.553	0.515	0.394	0.787	0.817	0.901	0.723	0.829	0.922	1.01	0.892	0.933	0.439
RERF-LC-KJ	0.878	0.849	0.926	0.871	0.736	1	0.998	0.743	0.787	0.618	0.853	0.901	0.79	0.755	0.759	0.71	0.627	0.631	0.638	0.275
SK-LU-1	1.06	1.22	1.26	1.43	1.25	0.405	0.404	0.293	0.479	0.37	0.832	0.884	0.983	1.01	0.756	0.837	1.22	0.636	1.06	1.35
SK-MES-1	1.11	1.18	1.16	1.03	0.987	0.259	0.243	0.328	0.311	0.32	0.912	1.01	1.02	1.02	0.983	0.94	1.02	1.1	1.06	1.08
SW 1573	0.689	0.848	0.985	0.838	0.803	0.443	0.364	0.43	0.426	0.257	0.761	0.786	0.754	0.718	0.778	0.916	0.965	0.924	1.1	0.841
